According to the Kinase Knowledgebase extract (Sharma et al. 2016):

Target: PIK3CD (Human) (UniProt O00329)
Test: Enzyme Assay

PIK3CD (Human), sequence (O00329 whole entry, looked up): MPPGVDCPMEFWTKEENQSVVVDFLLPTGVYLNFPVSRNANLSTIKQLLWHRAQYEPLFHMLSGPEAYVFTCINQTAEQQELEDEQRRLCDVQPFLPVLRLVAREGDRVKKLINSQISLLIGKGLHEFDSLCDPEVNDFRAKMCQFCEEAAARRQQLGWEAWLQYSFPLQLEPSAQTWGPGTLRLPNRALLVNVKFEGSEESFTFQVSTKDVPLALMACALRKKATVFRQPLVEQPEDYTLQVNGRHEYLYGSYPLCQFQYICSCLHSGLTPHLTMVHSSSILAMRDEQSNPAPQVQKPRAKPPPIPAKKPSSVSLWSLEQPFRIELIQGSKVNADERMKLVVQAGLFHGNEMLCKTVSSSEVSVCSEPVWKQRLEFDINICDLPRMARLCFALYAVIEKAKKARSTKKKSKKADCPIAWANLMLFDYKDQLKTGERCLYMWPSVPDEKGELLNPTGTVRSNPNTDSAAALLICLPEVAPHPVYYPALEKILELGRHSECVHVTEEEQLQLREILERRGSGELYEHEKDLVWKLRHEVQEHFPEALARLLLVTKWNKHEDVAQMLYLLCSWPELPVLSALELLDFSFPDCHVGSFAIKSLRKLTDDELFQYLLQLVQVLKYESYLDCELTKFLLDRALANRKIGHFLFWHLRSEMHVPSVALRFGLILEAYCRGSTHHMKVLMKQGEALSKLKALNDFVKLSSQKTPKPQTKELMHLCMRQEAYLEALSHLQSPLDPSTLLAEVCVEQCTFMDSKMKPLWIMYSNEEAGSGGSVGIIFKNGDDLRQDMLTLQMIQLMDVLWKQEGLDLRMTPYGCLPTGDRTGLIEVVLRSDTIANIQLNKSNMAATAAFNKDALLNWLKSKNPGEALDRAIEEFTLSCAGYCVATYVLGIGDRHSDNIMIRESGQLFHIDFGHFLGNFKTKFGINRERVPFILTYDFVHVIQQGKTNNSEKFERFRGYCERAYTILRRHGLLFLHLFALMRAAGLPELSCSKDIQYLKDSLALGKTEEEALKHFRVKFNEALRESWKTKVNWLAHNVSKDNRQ

Row | IC50 | Structure (SMILES)
1 | ≤ 0.001 µM | C[C@H](Nc1nc(N)nc(N)c1C#N)c1nc2cccc(Cl)c2c(=O)n1-c1ccccc1
2 | 0.01 to 0.05 µM | C[C@H](Nc1nc(N)nc(N)c1C#N)c1nc2ccc(F)cc2c(=O)n1-c1cccc(C#N)c1
3 | 0.001 to 0.01 µM | C[C@H](Nc1nc(N)nc(N)c1C#N)c1nc2ccc(F)c(Cl)c2c(=O)n1-c1cc(F)cc(F)c1
4 | ≤ 0.001 µM | Cc1cccc2nc([C@H](C)Nc3nc(N)nc(N)c3C#N)n(-c3ccccc3)c(=O)c12
5 | ≤ 0.001 µM | C[C@H](Nc1nc(N)nc(N)c1C#N)c1nc2cccc(Br)c2c(=O)n1-c1ccccc1
6 | 0.001 to 0.01 µM | C[C@H](Nc1nc(N)nc(N)c1C#N)c1nc2c(Cl)cc(F)cc2c(=O)n1-c1cc(F)cc(F)c1
7 | 0.01 to 0.05 µM | Cc1ccc(F)c2c(=O)n(-c3cccc(C#N)c3)c([C@H](C)Nc3nc(N)nc(N)c3C#N)nc12
8 | 0.001 to 0.01 µM | C[C@H](Nc1nc(N)nc(N)c1C#N)c1nc2cccc(Cl)c2c(=O)n1-c1cc(F)cc(C(F)(F)F)c1
9 | 0.001 to 0.01 µM | C[C@H](Nc1nc(N)nc(N)c1C#N)c1nc2cccc(Cl)c2c(=O)n1-c1cc(C(F)F)cc(C(F)F)c1
10 | 0.01 to 0.05 µM | C[C@H](Nc1nc(N)nc(N)c1C#N)c1nc2cccc(S(C)(=O)=O)c2c(=O)n1-c1cc(F)cc(C(F)F)c1
11 | 0.001 to 0.01 µM | Cc1ccc(F)c2nc([C@H](C)Nc3nc(N)nc(N)c3C#N)n(-c3cc(F)cc(C#N)c3)c(=O)c12
12 | 0.001 to 0.01 µM | C[C@H](Nc1nc(N)nc(N)c1C#N)c1nc2cccc(Cl)c2c(=O)n1-c1cc(F)cc(OC(F)(F)F)c1
13 | 0.001 to 0.01 µM | C[C@H](Nc1nc(N)nc(N)c1C#N)c1nc2cccc(Cl)c2c(=O)n1-c1cc(Cl)cc(Cl)c1
14 | 0.01 to 0.05 µM | C[C@H](Nc1nc(N)nc(N)c1C#N)c1nc2c(F)ccc(Cl)c2c(=O)n1-c1cc(F)cc(C#N)c1
15 | 0.001 to 0.01 µM | C[C@H](Nc1nc(N)nc(N)c1C#N)c1nc2cccc(Cl)c2c(=O)n1-c1cc(F)cc(Cl)c1
16 | 0.001 to 0.01 µM | C[C@H](Nc1nc(N)nc(N)c1C#N)c1nc2ccc(F)cc2c(=O)n1-c1ccccc1
17 | 0.01 to 0.05 µM | C[C@H](Nc1nc(N)nc(N)c1C#N)c1nc2cccc(F)c2c(=O)n1-c1cc(Cl)cc(Cl)c1
18 | 0.001 to 0.01 µM | C[C@H](Nc1nc(N)nc(N)c1C#N)c1nc2cccc(S(C)(=O)=O)c2c(=O)n1-c1cccc(F)c1
19 | 0.001 to 0.01 µM | C[C@H](Nc1nc(N)nc(N)c1C#N)c1nc2ccc(F)cc2c(=O)n1-c1cccc(Cl)c1
20 | 0.01 to 0.05 µM | CC[C@H](Nc1nc(N)nc(N)c1C#N)c1nc2cccc(F)c2c(=O)n1-c1cc(F)cc(C(F)F)c1
21 | 0.01 to 0.05 µM | C[C@H](Nc1nc(N)nc(N)c1C#N)c1nc2cccc(F)c2c(=O)n1-c1cc(F)cc(Cl)c1

Row | IC50 | Structure (SMILES)
22 | 0.001 to 0.01 µM | C[C@H](Nc1nc(N)nc(N)c1C#N)c1nc2c(F)ccc(C#N)c2c(=O)n1-c1ccccc1
23 | 0.001 to 0.01 µM | C[C@H](Nc1nc(N)nc(N)c1C#N)c1nc2cccc(C(N)=O)c2c(=O)n1-c1ccccc1
24 | 0.001 to 0.01 µM | CC(C)c1cccc(-n2c([C@H](C)Nc3nc(N)nc(N)c3C#N)nc3cccc(Cl)c3c2=O)c1
25 | 0.001 to 0.01 µM | CC[C@H](Nc1nc(N)nc(N)c1C#N)c1nc2ccc(F)cc2c(=O)n1-c1cccc(F)c1
26 | 0.001 to 0.01 µM | C[C@H](Nc1nc(N)nc(N)c1C#N)c1nc2ccc(F)cc2c(=O)n1-c1cc(F)cc(F)c1
27 | 0.001 to 0.01 µM | CCC[C@H](Nc1nc(N)nc(N)c1C#N)c1nc2cccc(F)c2c(=O)n1-c1cc(F)cc(F)c1
28 | 0.01 to 0.05 µM | C[C@H](Nc1nc(N)nc(N)c1C#N)c1nc2cccc(C#N)c2c(=O)n1-c1cc(F)cc(C(F)F)c1
29 | 0.001 to 0.01 µM | CC[C@H](Nc1nc(N)nc(N)c1C#N)c1nc2cccc(F)c2c(=O)n1-c1cc(F)cc(F)c1
30 | 0.001 to 0.01 µM | C[C@H](Nc1nc(N)nc(N)c1C#N)c1nc2cccc(F)c2c(=O)n1-c1ccccc1
31 | 0.01 to 0.05 µM | C[C@H](Nc1nc(N)nc(N)c1C#N)c1nc2ccc(F)c(Cl)c2c(=O)n1-c1cccc(C#N)c1
32 | 0.001 to 0.01 µM | C[C@H](Nc1ncnc(N)c1C#N)c1nc2cccc(Cl)c2c(=O)n1-c1cc(F)cc(F)c1
33 | 0.01 to 0.05 µM | C[C@H](Nc1nc(N)nc(N)c1C#N)c1nc2ccc(F)c(Cl)c2c(=O)n1-c1cc(F)cc(C(F)F)c1
34 | 0.001 to 0.01 µM | CC[C@H](Nc1nc(N)nc(N)c1C#N)c1nc2c(F)cccc2c(=O)n1-c1cc(F)cc(F)c1
35 | 0.001 to 0.01 µM | C[C@H](Nc1nc(N)nc(N)c1C#N)c1nc2c(C#N)cc(F)cc2c(=O)n1-c1cccc(F)c1
36 | 0.001 to 0.01 µM | C[C@H](Nc1nc(N)nc(N)c1C#N)c1nc2cccc(S(C)(=O)=O)c2c(=O)n1-c1cccc(C(F)F)c1
37 | 0.001 to 0.01 µM | COC[C@@H](Nc1nc(N)nc(N)c1C#N)c1nc2cccc(Cl)c2c(=O)n1-c1cc(F)cc(F)c1
38 | 0.01 to 0.05 µM | CC[C@H](Nc1nc(N)nc(N)c1C#N)c1nc2c(F)ccc(F)c2c(=O)n1-c1cc(F)cc(F)c1
39 | ≤ 0.001 µM | Cc1ccc(Cl)c2c(=O)n(-c3ccccc3)c([C@H](C)Nc3nc(N)nc(N)c3C#N)nc12
40 | 0.001 to 0.01 µM | C[C@H](Nc1nc(N)nc(N)c1C#N)c1nc2c(F)cccc2c(=O)n1-c1ccccc1
41 | ≤ 0.001 µM | CC[C@H](Nc1nc(N)nc(N)c1C#N)c1nc2cccc(C)c2c(=O)n1-c1cc(F)cc(F)c1
42 | 0.001 to 0.01 µM | Cc1cccc2c(=O)n(-c3ccccc3)c([C@H](C)Nc3nc(N)nc(N)c3C#N)nc12

Row | IC50 | Structure (SMILES)
43 | 0.001 to 0.01 µM | Cc1cccc2c(=O)n(-c3cc(F)cc(F)c3)c([C@H](C)Nc3nc(N)nc(N)c3C#N)nc12
44 | 0.001 to 0.01 µM | CC[C@H](Nc1nc(N)nc(N)c1C#N)c1nc2c(F)ccc(F)c2c(=O)n1-c1ccccc1
45 | 0.01 to 0.05 µM | C[C@H](Nc1nc(N)nc(N)c1C#N)c1nc2cc(F)c(F)cc2c(=O)n1-c1cc(F)cc(F)c1
46 | ≤ 0.001 µM | C[C@H](Nc1nc(N)nc(N)c1C#N)c1cc2cccc(Cl)c2c(=O)n1-c1ccccc1
47 | 0.01 to 0.05 µM | C[C@H](Nc1nc(N)nc(N)c1C#N)c1nc2cccc(F)c2c(=O)n1-c1cc(F)cc(C(F)F)c1
48 | 0.001 to 0.01 µM | C[C@H](Nc1nc(N)nc(N)c1C#N)c1nc2cccc(Cl)c2c(=O)n1-c1cccc(CC(F)F)c1
49 | 0.01 to 0.05 µM | CC(C)C[C@H](Nc1nc(N)nc(N)c1C#N)c1nc2cccc(Cl)c2c(=O)n1-c1cccc(C#N)c1
50 | ≤ 0.001 µM | COc1cccc(-n2c([C@H](C)Nc3nc(N)nc(N)c3C#N)nc3cccc(Cl)c3c2=O)c1
51 | 0.001 to 0.01 µM | CC[C@H](C)[C@H](Nc1nc(N)nc(N)c1C#N)c1nc2cccc(Cl)c2c(=O)n1-c1cc(F)cc(F)c1
52 | ≤ 0.001 µM | C[C@H](Nc1nc(N)nc(N)c1Cl)c1cc2cccc(Cl)c2c(=O)n1-c1ccccc1
53 | 0.01 to 0.05 µM | C[C@H](Nc1nc(N)nc(N)c1C#N)c1nc2c(C(F)F)cccc2c(=O)n1-c1cc(F)cc(F)c1
54 | 0.001 to 0.01 µM | COc1cc(C(F)F)cc(-n2c([C@H](C)Nc3nc(N)nc(N)c3C#N)nc3cccc(Cl)c3c2=O)c1
55 | 0.01 to 0.05 µM | CC[C@H](Nc1nc(N)nc(N)c1C#N)c1nc2cccc(F)c2c(=O)n1-c1cccc(C(F)(F)F)c1
56 | 0.01 to 0.05 µM | COc1cccc2nc([C@H](C)Nc3nc(N)nc(N)c3C#N)n(-c3ccccc3)c(=O)c12
57 | 0.01 to 0.05 µM | CC[C@H](Nc1nc(N)nc(N)c1C#N)c1nc2c(F)ccc(F)c2c(=O)n1-c1cccc(C#N)c1
58 | 0.001 to 0.01 µM | C[C@H](Nc1nc(N)nc(N)c1C#N)c1nc2c(Cl)ccc(Cl)c2c(=O)n1-c1cc(F)cc(F)c1
59 | 0.001 to 0.01 µM | C[C@H](Nc1nc(N)nc(N)c1C#N)c1nc2cccc(C#N)c2c(=O)n1-c1cc(F)cc(F)c1
60 | 0.001 to 0.01 µM | CC[C@H](Nc1nc(N)nc(N)c1C#N)c1nc2c(F)ccc(F)c2c(=O)n1-c1cccc(F)c1
61 | 0.001 to 0.01 µM | C[C@H](Nc1nc(N)nc(N)c1C#N)c1nc2c(F)ccc(F)c2c(=O)n1-c1cc(F)cc(F)c1
62 | 0.01 to 0.05 µM | C[C@H](Nc1nc(N)nc(N)c1C#N)c1nc2cccc(F)c2c(=O)n1-c1cccc(C#N)c1
63 | 0.001 to 0.01 µM | C[C@H](Nc1nc(N)nc(N)c1C#N)c1nc2cccc(C#N)c2c(=O)n1-c1cccc(F)c1

Row | IC50 | Structure (SMILES)
64 | 0.01 to 0.05 µM | COc1cc(-n2c([C@H](C)Nc3nc(N)nc(N)c3C#N)nc3cccc(Cl)c3c2=O)ccc1C
65 | ≤ 0.001 µM | C[C@H](Nc1nc(N)nc(N)c1C#N)c1nc2cccc(Cl)c2c(=O)n1-c1cccc(F)c1
66 | 0.01 to 0.05 µM | C[C@H](Nc1nc(N)nc(N)c1C#N)c1nc2c(F)ccc(F)c2c(=O)n1-c1cccc(C#N)c1
67 | 0.01 to 0.05 µM | CC[C@H](Nc1nc(N)nc(N)c1C#N)c1nc2ccc(F)cc2c(=O)n1-c1cc(F)cc(F)c1
68 | 0.01 to 0.05 µM | C[C@H](Nc1nc(N)nc(N)c1C#N)c1nc2cccc(F)c2c(=O)n1-c1cc(F)cc(C#N)c1
69 | 0.001 to 0.01 µM | C[C@H](Nc1nc(N)nc(N)c1C#N)c1nc2cccc(S(C)(=O)=O)c2c(=O)n1-c1ccccc1
70 | ≤ 0.001 µM | C[C@H](Nc1nc(N)nc(N)c1C#N)c1nc2cccc(Cl)c2c(=O)n1-c1cc(F)cc(F)c1
71 | 0.001 to 0.01 µM | C[C@H](Nc1nc(N)nc(N)c1C#N)c1nc2cccc(C(F)F)c2c(=O)n1-c1cc(F)cc(C(F)F)c1
72 | 0.001 to 0.01 µM | C[C@H](Nc1nc(N)nc(N)c1C#N)c1nc2c(C#N)cccc2c(=O)n1-c1ccccc1
73 | 0.001 to 0.01 µM | CC(C)[C@H](Nc1nc(N)nc(N)c1C#N)c1nc2cccc(Cl)c2c(=O)n1-c1cc(F)cc(F)c1
74 | 0.001 to 0.01 µM | CC[C@H](Nc1nc(N)nc(N)c1C#N)c1nc2cccc(F)c2c(=O)n1-c1cccc(F)c1
75 | 0.01 to 0.05 µM | C[C@H](Nc1nc(N)nc(N)c1C#N)c1nc2ccc(F)c(F)c2c(=O)n1-c1cc(F)cc(F)c1
76 | 0.001 to 0.01 µM | C[C@H](Nc1nc(N)nc(N)c1C#N)c1nc2cccc(Cl)c2c(=O)n1-c1cc(F)cc(C#N)c1
77 | 0.001 to 0.01 µM | C[C@H](Nc1nc(N)nc(N)c1C#N)c1nc2cccc(F)c2c(=O)n1-c1cccc(C(F)F)c1
78 | ≤ 0.001 µM | Cc1ccc(F)c2nc([C@H](C)Nc3nc(N)nc(N)c3C#N)n(-c3ccccc3)c(=O)c12
79 | 0.001 to 0.01 µM | CC[C@H](Nc1nc(N)nc(N)c1C#N)c1nc2cccc(Cl)c2c(=O)n1-c1cc(F)cc(C(F)F)c1
80 | 0.001 to 0.01 µM | Cc1ccc(F)c2c(=O)n(-c3ccccc3)c([C@H](C)Nc3nc(N)nc(N)c3C#N)nc12
81 | 0.01 to 0.05 µM | CC[C@H](Nc1nc(N)nc(N)c1C#N)c1nc2c(C)cccc2c(=O)n1-c1cc(F)cc(F)c1
82 | ≤ 0.001 µM | Cc1ccc(Cl)c2c(=O)n(-c3cccc(Cl)c3)c([C@H](C)Nc3nc(N)nc(N)c3C#N)nc12
83 | 0.001 to 0.01 µM | C[C@H](Nc1nc(N)nc(N)c1C#N)c1nc2cccc(S(C)(=O)=O)c2c(=O)n1-c1cc(F)cc(F)c1

Row | Structure (SMILES) | IC50
84 | C[C@H](Nc1ncnc(N)c1C#N)c1nc2cccc(Cl)c2c(=O)n1-c1ccccc1 | ≤ 0.001 µM
85 | C[C@H](Nc1nc(N)nc(N)c1Cl)c1nc2cccc(Cl)c2c(=O)n1-c1ccccc1 | ≤ 0.001 µM
